Entries after “also recorded” stand apart in the source; their conditions may differ.

This is an account of results in patent US20210348164A1, “ENDOGENOUS CYTOPLASMIC ALU COMPLEMENTARY DNA IN AGE-RELATED MACULAR DEGENERATION” (University of Virginia Patent Foundation, priority 2018, published 2021).

Test [1] concerns Alu cDNA in primary human RPE cells. The experiment in a line: Alu cDNA in primary human RPE cells (Alu c-PCR, real-time PCR, in situ hybridization, equator blotting). Format: cell-based. The following applies: primary human RPE cells; cytoplasmic fraction; Alu c-PCR. As to the method: Cell culture and transfection. Primary mouse and human RPE cells were isolated as previously described (Kerur et al., 2018). All cells were maintained at 37° C. in a 5% CO2 environment. Mouse RPE cells were cultured in DMEM supplemented with 20% FBS and penicillin/streptomycin antibiotics at standard concentrations; primary human RPE cells were maintained in DMEM supplemented with 10% FBS and antibiotics. The human RPE cell line ARPE19 was cultured as previously described (Kerur et al., 2018) and maintained in DMEM-F12 containing penicillin/streptomycin, Fungizone, and gentamicin. HEK293T cells were cultured in DMEM with 10% fetal bovine serum (FBS) with 100 U/ml penicillin/streptomycin and 2 mM L-glutamine. Primary wild-type mouse bone marrow-derived macrophages (BMDMs) were isolated, and cultured in Iscove's Modified Dulbecco's Medium (IMDM) supplemented with 30% L929 supernatant containing macrophage-stimulating factor, nonessential amino acids, sodium pyruvate, 10% FBS and antibiotics, 50 μM β-mercaptoethanol (Seo et al., 2015), and serum starved in IMDM with 1% FBS and 100 U/ml penicillin/streptomycin overnight prior to LPS stimulation. NRTIs or NNRTIs were added 30 minutes prior to LPS stimulation and again 30 minutes prior to ATP activation. LPS (100 ng/mL) was added for 3-4 hours prior to the addition of ATP. Cell lysates were collected 30 minutes after addition of ATP (5 mM). Primary human subcutaneous pre-adipocytes (Catalogue No. PCS-210-010, ATCC, Manassas, Va., United States of America) and primary human dermal fibroblasts (Catalogue No. PCS-201-012, ATCC) were grown in fibroblast basal medium with fibroblast growth kit for low serum (ATCC).
Umbilical artery vascular smooth muscle cells (Catalogue No. CC-2579, Lonza, Morristown, N.J., United States of America) were grown in SMGM™-2 Smooth Muscle Growth Medium-2 BULLETKIT™ (Lonza). Primary human skeletal myoblasts (Catalogue No. A11440, Thermo Fisher Scientific) were grown in DMEM with 2% horse serum. Primary human epidermal keratinocytes (Catalogue NO. CO215C, Thermo Fisher Scientific) were grown in EPILIFE® Medium (Thermo Fisher Scientific). Human umbilical vein endothelial cells (HUVEC) were grown in HUVEC EGM™-2 Media (Lonza). Primary human peripheral blood mononuclear cells (Catalogue NO. PCS-800-011, ATCC) were directly used without culture for experiments. RPMI 1640 medium with 10% human serum with human GM-CSF (Miltenyi Biotec Inc., Auburn, Calif., United States of America) was used as media during the experiment. Transfections were performed according to the manufacturer's instructions (LIPOFECTAMINE® 2000, Invitrogen). For transfection of primary human peripheral blood mononuclear cells, HiPerFect Transfection Reagent (Qiagen) was used as previously described (Troegeler et al., 2014). NRTIs were administered 60 minutes before transfection and added again upon replacement of media at 8 hours. To induce acid injury or osmotic stress, primary human RPE cells were treated with HCl (pH 4.0 media) or H2O for 30 minutes, 1 hour, and 2 hours at 37° C. in 5% CO2, respectively. NIH3T3 Tet-ON cells were cultured in DMEM with 10% tetracycline-free fetal bovine serum (FBS) with 100 U/ml penicillin/streptomycin. NIH3T3 Tet-ON cells were transfected with pLD401 (see Taylor et al., 2013; gift of J. D. Boeke, Institute for Systems Genetics, NYU Langone Health, New York, New York, United States of America) and human L1 ORF1p abundance was monitored after 24 hours of doxycycline induction. […]

Test [2] relates to Alu cDNA in ARPE-19 cells. The experiment in a line: Alu cDNA in ARPE-19 cells (Alu c-PCR, in situ hybridization). The following applies: Alu c-PCR. Format: cell-based, human. As for the experimental part: Cell culture and transfection. Primary mouse and human RPE cells were isolated as previously described (Kerur et al., 2018). All cells were maintained at 37° C. in a 5% CO2 environment. Mouse RPE cells were cultured in DMEM supplemented with 20% FBS and penicillin/streptomycin antibiotics at standard concentrations; primary human RPE cells were maintained in DMEM supplemented with 10% FBS and antibiotics. The human RPE cell line ARPE19 was cultured as previously described (Kerur et al., 2018) and maintained in DMEM-F12 containing penicillin/streptomycin, Fungizone, and gentamicin. HEK293T cells were cultured in DMEM with 10% fetal bovine serum (FBS) with 100 U/ml penicillin/streptomycin and 2 mM L-glutamine. […]
In situ hybridization. […] Visualization of fluorescein-labelled probe was performed with the TSA™ plus fluorescence system or the TSA™ plus Cy5 system (PerkinElmer). The fluorescent or Cy5 signals were detected using a Leica SP-5 or MR Nikon confocal microscope system. […]

The test system of another test is reverse transcriptase. The following applies: Fowler et al., 2014; Ambati et al., 2018; cited from earlier work.
Test [3] concerns reverse transcriptase activity of cytoplasmic fractions of F9 cells. Briefly: In vitro reverse transcriptase activity of cytoplasmic fractions (Alu RNA-templated, Alu-specific qPCR). Format: biochemical, mouse. As to the method: In vitro reverse transcriptase (RT) activity. In vitro reverse transcriptase (RT) activity in nuclear and cytoplasmic protein fractions was assessed using an Alu RNA-templated reaction. The RT reaction was carried out in a 20 μl reaction mix containing Alu RNA template (10 ng); Alu primer ([…]); dNTPs mix; cytoplasmic or nuclear protein, and Quantiscript RT Buffer (Qiagen). The reaction mixture was incubated at 42° C. for 30 minutes. The resulting cDNA was quantified by qPCR using Alu RNA template-specific primers. The reaction to evaluate self-priming activity of Alu RNA was carried out in the absence of priming oligos in a 20 μl reaction mix containing: Alu RNA with 3′-U tail; dNTP mix; cytoplasmic protein from mouse RPE cells; and Quantiscript RT Buffer (Qiagen) as described above. The resulting cDNA product was quantified by qPCR using Alu RNA template-specific primers. Alu RNA tailed on the 3′ end with chain terminator dideoxy thymidine base (ddTTP) was generated using TdT (New England Biolabs (NEB)) according to the manufacturer's instructions. Alu RNA tailed on the 3′ end with chain terminator cordycepin tri-phosphate was generated using PAP (NEB) according to the manufacturer's instructions.
(In qPCR the cycle at which signal appears reflects the starting amount.)

Regarding `Cc1cn([C@H]2C=C[C@@H](CO)O2)c(=O)[nH]c1=O` [d4T, 2′,3′-didehydro-2′,3′-dideoxythymidine], the entries for the “Endogenous Alu cDNA abundance” value in test [1] and in test [2] were “dramatically decreased Alu cDNA levels; also recorded: reduced” and “reduced”, respectively.

For azidothymidine triphosphate [AZT-TP], the “inhibition of reverse transcriptase” value with reverse transcriptase is reported as “inhibits reverse transcription”. Also, in test [3], the “Alu cDNA formation from Alu RNA (reverse transcriptase activity)” value is listed as “reduced Alu cDNA synthesis; also recorded: reduced Alu cDNA formation”.
